Measured values published in patent US20040220085A1, “Compositions for nucleic acid delivery” (priority 2003, published 2004).

Legend:
Format in all cases: cell-based, human
JJ5 breast cancer cells [1] = experiment: Cytotoxicity (colony-forming) assay against JJ5 breast cancer cells; conditions: 14 days
Protocol: JJ5 breast cancer cells were incubated with increasing amounts EGF-^111In-labeled transferrin composition or ^111In-oxine, centrifuged to remove free ligand, assayed and then seeded into 50 mm culture dishes. The number of cells seeded was varied from 3×10^4 to 3×10^6cells to obtain approximately 400 viable colonies/dish taking into account the plating efficiency and the expected level of cytotoxicity. Control dishes contained JJ5 breast cancer cells which were incubated with normal saline. Growth medium was added and the cells were cultured at 37° C./5% CO^2 for 14 days. The growth medium was removed and the colonies were stained with methylene blue (1% in a 1:1 mixture of ethanol and water) then washed twice. The number of colonies per dish was counted using a manual colony counter (Manostat Corp). The plating efficiency was calculated by dividing the number of colonies observed by the number of cells seeded in each dish. The surviving fraction at increasing amounts of EGF-^111In-labeled transferrin composition or ^111In-oxine was calculated by dividing the plating efficiency for dishes containing treated cells with that observed for control dishes with normal saline.

JJ5 breast cancer cells [2] = experiment: Growth inhibition assay against JJ5 breast cancer cells; conditions: 4 days culture
Protocol: JJ5 breast cancer cells (prepared from BCBM JJ5) expressing approximately 10^6 epidermal growth factor receptors/cell were incubated with EGF-^111In-labeled transferrin composition, unlabeled hEGF or ^111In-oxine, centrifuged to remove free ligand, then assayed and seeded (10^6 cells/dish) into 35 mm culture dishes. Growth medium was added and the cells were cultured at 37° C./5% CO^2 for 4 days. The cells were then recovered by trypsinization and counted in a hemocytometer. Control dishes contained cells cultured in growth medium containing ^111In-DTPA or growth medium alone.

[3] = tested on: JJ5 Breast Cancer cells (EGFR); experiment: Binding of EGF-111In-labeled transferrin composition to JJ5 breast cancer cells
Protocol: For the normal breast cell line HBL-100, 8000 EGFR/cell has been reported. The expression of EGFR in breast cancer cell lines has a reported range of 800 EGFR/cell for MCF-7 cells to 10^6 EGFR/cell for MDA-MB-468 cells. […] Utilizing the Auger electron emitter ^111In was used in the initial experiments to illustrate the utility of the invention using EGF-^111In-labeled transferrin compositions. The EGF-^111In-labeled transferrin (0.25-80 ng) was incubated with 1.5×10^6 cells/dish JJ5 Breast Cancer (prepared from BCBM JJ5) cells in 1 mL of 0.1% human serum albumin in 35 mm multiwell culture dishes at 37° C. for 30 minutes. The cells were transferred to a centrifuge tube and centrifuged. The cell pellet was separated from the supernatant and counted in a g-scintillation counter to determine bound (B) and free (F) radioactivity. Non-specific binding was determined by conducting the assay in 100 nM hEGF. The kinetics of binding was determined by incubating 1 ng of EGF-^111In-labeled transferrin composition with 3×10^6 JJ5 Breast Cancer cells at 37° C. and determining the proportion of radioactivity bound to the cells at various times up to 24 hours. Internalized fraction was measured by determining the proportion of radioactivity which could not be displaced from the cell surface by 100 nM hEGF. Cell-associated binding (surface-binding and intracellular accumulation) was expressed as a percentage of medium radioactivity bound per mg of cell study protein.

| Compound | cell killing (JJ5 breast cancer cells [1]; <6 pCi/cell) | growth inhibition of the JJ5 cells (JJ5 breast cancer cells [2]; 3.5 pCi/cell) | reduction in cell survival for JJ5 cells (JJ5 breast cancer cells [1]; 8 pCi/cell) | growth inhibition of the JJ5 cells compared to the medium control (JJ5 breast cancer cells [2]; 3.4 pCi/cell) | internalization by cancer cells ([3]; JJ5 cells) | number of binding sites ([3]; JJ5 cells) | kinetics of binding to the breast cancer cells ([3]; JJ5 cells, 37° C.) | time retained by the breast cancer cells ([3]; JJ5 cells, 37° C.) | affinity constant for binding to JJ5 cells ([3]; JJ5 cells, 37° C., 30 minutes) | 111In radioactivity lost from the cells in vitro ([3]; over a 24 hour period at 37° C.) |
| --- | --- | --- | --- | --- | --- | --- | --- | --- | --- | --- |
| [In+3].[O-]c1cccc2cccnc12.[O-]c1cccc2cccnc12.[O-]c1cccc2cccnc12 [^111In-oxine, reference compound] | greater than 99% | 91% |  |  |  |  |  |  |  |  |
| EGF-^111In-labeled transferrin composition: human EGF linked to transferrin radiolabeled with the Auger electron emitter 111In at the iron-binding sites |  |  | 99% | 83% | rapidly internalized | 2.7×10^6 | rapidly bound | at least 24 hours | 8e+08 L/mol | < 8% |
